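Step 1: Grow cells in 96-well plates. Step 2: Expose to compound for 48 hours at 5 concentrations. Step 3: Interpolate endpoints linearly; if unreached, use highest concentration. GI50 is the concentration that inhibits growth by half. TGI is the concentration that stops growth completely.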
Assays:
Experiment in all cases: NCI-60 cell line screen, 48 h
[1] = system: MALME-3M melanoma
[2] = system: ACHN renal
[3] = system: 786-0 renal
[4] = system: SNB-19 CNS
[5] = system: UACC-257 melanoma
[6] = system: UACC-62 melanoma
[7] = system: K-562 leukemia
[8] = system: IGROV1 ovarian
[9] = system: PC-3 prostate
[10] = system: HT29 colon
[11] = system: LOX IMVI melanoma
[12] = system: SK-OV-3 ovarian
[13] = system: SNB-75 CNS
[14] = system: SF-539 CNS
[15] = system: HS 578T breast
[16] = system: SK-MEL-28 melanoma
[17] = system: NCI-H226 lung
[18] = system: MDA-MB-435
[19] = system: M14 melanoma
[20] = system: SN12C renal
[21] = system: OVCAR-8 ovarian
[22] = system: MOLT-4 leukemia
[23] = system: SK-MEL-5 melanoma
[24] = system: NCI-H460 lung
[25] = system: OVCAR-5 ovarian
[26] = system: HCC-2998 colon
[27] = system: UO-31 renal
[28] = system: RPMI-8226 leukemia
[29] = system: SF-268 CNS
[30] = system: RXF 393 renal
[31] = system: A549 NSCLC
[32] = system: HOP-62 NSCLC
[33] = system: NCI-H522 lung
[34] = system: HL-60(TB) leukemia
[35] = system: HCT-116 colon
[36] = system: SR leukemia
[37] = system: CCRF-CEM leukemia
[38] = system: NCI/ADR-RES ovarian
[39] = system: BT-549 breast
[40] = system: HCT-15 colon
[41] = system: T-47D breast
[42] = system: MDA-MB-231 breast
[43] = system: COLO 205 colon
[44] = system: EKVX NSCLC
[45] = system: MCF7 breast
[46] = system: SF-295 CNS
[47] = system: OVCAR-4 ovarian
[48] = system: SK-MEL-2 melanoma
[49] = system: CAKI-1 renal
[50] = system: SW-620 colon
[51] = system: U251 CNS
[52] = system: HOP-92 NSCLC
[53] = system: TK-10 renal
[54] = system: A498 renal
[55] = system: DU-145 prostate
[56] = system: KM12 colon

CN(C)CCN(C)c1ccc2ncc(C#Cc3cncc(C(=O)Nc4ccc(CN5CCN(C)CC5)c(C(F)(F)F)c4)c3)n2n1
GI50 [1]: 2.7 µM | TGI [1]: 9.71 µM | GI50 [2]: 2.51 µM | TGI [2]: 8.72 µM | GI50 [3]: 6.9 µM | TGI [3]: 13.5 µM | GI50 [4]: 4.75 µM | TGI [4]: 10.8 µM | GI50 [5]: 6.04 µM | TGI [5]: 12.3 µM | GI50 [6]: 8.21 µM | TGI [6]: 15.7 µM | GI50 [7]: 0.0227 µM | TGI [7]: 0.787 µM | GI50 [8]: 1.59 µM | TGI [8]: 5.7 µM | GI50 [9]: 5.07 µM | TGI [9]: 11.2 µM | GI50 [10]: 0.822 µM | TGI [10]: 1.91 µM | GI50 [11]: 0.75 µM | TGI [11]: 1.42 µM | GI50 [12]: 8.01 µM | TGI [12]: 15 µM | GI50 [13]: 0.879 µM | TGI [13]: 6.57 µM | GI50 [14]: 0.615 µM | TGI [14]: 1.32 µM | GI50 [15]: 1.68 µM | TGI [15]: 9.75 µM | GI50 [16]: 7.58 µM | TGI [16]: 14.3 µM | GI50 [17]: 1.23 µM | TGI [17]: 8.28 µM | GI50 [18]: 2.17 µM | TGI [18]: 8.72 µM | GI50 [19]: 0.854 µM | TGI [19]: 1.71 µM | GI50 [20]: 2.23 µM | TGI [20]: 7.79 µM | GI50 [21]: 1.95 µM | TGI [21]: 7.06 µM | GI50 [22]: 0.863 µM | TGI [22]: 2.62 µM | GI50 [23]: 5.08 µM | TGI [23]: 10.9 µM | GI50 [24]: 0.891 µM | TGI [24]: 1.69 µM | GI50 [25]: 6.21 µM | TGI [25]: 12.9 µM | GI50 [26]: 1 µM | TGI [26]: 2.08 µM | GI50 [27]: 6.05 µM | TGI [27]: 12.4 µM | GI50 [28]: 0.955 µM | TGI [28]: 2.16 µM | GI50 [29]: 5.58 µM | TGI [29]: 13.3 µM | GI50 [30]: 0.876 µM | TGI [30]: 1.63 µM | GI50 [31]: 0.947 µM | TGI [31]: 2.15 µM | GI50 [32]: 3.98 µM | TGI [32]: 10.4 µM | GI50 [33]: 5.08 µM | TGI [33]: 11.8 µM | GI50 [34]: 1.28 µM | TGI [34]: 2.39 µM | GI50 [35]: 1.57 µM | TGI [35]: 6.96 µM | GI50 [36]: 0.614 µM | TGI [36]: 1.63 µM | GI50 [37]: 1.08 µM | TGI [37]: 2.91 µM | GI50 [38]: 2.13 µM | TGI [38]: 7.8 µM | GI50 [39]: 3.37 µM | TGI [39]: 9.44 µM | GI50 [40]: 1.14 µM | TGI [40]: 3.14 µM | GI50 [41]: 7.83 µM | TGI [41]: 15.5 µM | GI50 [42]: 0.889 µM | TGI [42]: 2.17 µM | GI50 [43]: 1.21 µM | TGI [43]: 6.51 µM | GI50 [44]: 4.81 µM | TGI [44]: 11.2 µM | GI50 [45]: 0.564 µM | TGI [45]: 1.47 µM | GI50 [46]: 0.801 µM | TGI [46]: 1.76 µM | GI50 [47]: 0.933 µM | TGI [47]: 2.75 µM | GI50 [48]: 6.09 µM | TGI [48]: 12.5 µM | GI50 [49]: 4 µM | TGI [49]: 10.4 µM | GI50 [50]: 0.949 µM | TGI [50]: 2.27 µM | GI50 [51]: 0.883 µM | TGI [51]: 1.78 µM | GI50 [52]: 1.71 µM | TGI [52]: 8.31 µM | GI50 [53]: 12.1 µM | TGI [53]: 19.5 µM | GI50 [54]: 6.05 µM | TGI [54]: 12.2 µM | GI50 [55]: 3.54 µM | TGI [55]: 9.9 µM | GI50 [56]: 0.386 µM | TGI [56]: 4.66 µM
